In patent US20210137898A1, “METHODS TO TREAT GLIOMAS USING A STAT3 INHIBITOR” (Mayo Foundation for Medical Education and Research, priority 2017, published 2021):

Experiments:
[1] = system: H3K27me3 in H3K27M tumor cells (Peds8); assay: Global H3K27 trimethylation in H3K27M tumor cells after treatment; assay type: cell-based; details: vs no treatment (NT), FIG. 6B-D
Method: (§1) The role of STAT3 in midline H3K27M tumors (e.g., diffuse midline H3K27M tumors) has not been studied. To further validate STAT3 signaling as a potential drug target in these patients, it was determined if STAT3 is required for proliferation of H3K27M cells. […] Because of the critical dependence of STAT3 signaling in H3K27M tumor cells, the activity of STAT3 (pSTAT3) would be elevated in patients with DIPG tumors. Using treatment naive surgical samples from DIPG patients, an increase (>10-fold) in pSTAT3 levels was observed as compared to non-neoplastic brain tissues from other surgeries (FIG. 5A). Using large cohorts from published data sets, it was also seen a >2-fold increase in STAT3 mRNA expression (RNA-seq) in DIPG patients compared to normal brainy (FIG. 5B). In addition, pSTAT3 expression levels were increased in H3K27M cell lines compared to WT lines in both pediatric and adult high-grade gliomas (FIG. 6). […] The data presented supports a method of treating glioma with H3K27M mutation by restoration of methylation pattern. In one example, the methylation pattern is restored by a H3K27me3 demethylase inhibitor (e.g., GSK-J4).

Peds8 H3K27M cells = assay: Cell viability, STAT3 inhibitors, H3K27M cells Peds8; assay type: cell-based
Method: (§2) Results are mean±SD of three independent experiments. B and C. H3K27M cells (Peds8 and DIPG8) are selectively sensitive to inhibition by STAT3 inhibitors. […] C.
as §1

WT SF9427 cell line = assay: Cell viability, STAT3 inhibitors, WT SF9427 cell line; assay type: cell-based; details: WT SF9427 cells, FIG. 4B/4C
Method: as §2, §1

H3K27M tumor Peds17 = system: H3K27M tumor Peds17; parameters: species or system mice; details: mouse, in vivo, po
Method: H3K27M tumor Peds17 treated with STAT3 inhibitor WP1066 (20 mg/kg oral gavage) vs. control (DMSO) for 8 weeks. […] Cohorts of mice (n=10/group), were implanted in the brainstem and BLI was performed weekly using IVIS Lumina imaging system using luciferase transfected tumor cells.
To validate STAT3 as a therapeutic target for H3K27M tumors, the effects on tumor growth with WP1066 were evaluated in intracranial orthotopic xenografts (FIG. 7).

DIPG8 H3K27M cells = assay: Cell viability, STAT3 inhibitors, H3K27M cells DIPG8; assay type: cell-based; details: FIG. 4B/4C
Method: as §2, §1

Compound | H3K27me3 level [1] | IC50 (Peds8 H3K27M cells; Peds8 (H3K27M) cells, FIG. 4B/4C) | cell viability of two H3K27M DIPG cell lines (Peds8 H3K27M cells; two H3K27M DIPG cell lines, much less in WT SF9427 cell line) | IC50 (WT SF9427 cell line) | toxicities in the mice (H3K27M tumor Peds17) | IC50 (DIPG8 H3K27M cells)
CCOC(=O)CCNc1cc(N2CCc3ccccc3CC2)nc(-c2ccccn2)n1 [GSKJ4] | increases H3K27me3 |  |  |  |  | 
C[C@H](NC(=O)/C(C#N)=C/c1cccc(Br)n1)c1ccccc1 [WP1066] | increases H3K27me3 | 1900 nM | inhibited cell viability | 62300 nM | no toxicities were noted | 2500 nM
